Test results as given in PubChem BioAssay AID1508591.

conditions: rat; liver microsomes; pH 7.4; 15.0 min; 1.0 µM

half-life	SMILES
1.58 min	Cc1ccc(S(=O)(=O)N2CCN(C(=O)c3cc4c(s3)CCC4)CC2)cc1
7.65 min	Cc1noc(C)c1-c1ccc2ncnc(NC(C)c3ccccc3)c2c1 (stereo unspecified)
16.2 min	O=C(NC1CCCN(c2cc(-c3ccc(F)cc3)[nH]n2)C1)c1ccc2ncccc2c1 (stereo unspecified)
15 min	Cc1ccc(-c2cc(C(=O)Nc3ccc(S(=O)(=O)Nc4ccc(C#N)cc4)cc3)c3ccccc3n2)cc1C
1.26 min	Cc1sc2c(c1C)C(c1ccc(Cl)cc1)=N[C@@H](CC(=O)Nc1ccc(OCCOCCOCCOCCNc3cccc4c3C(=O)N(C3CCC(=O)NC3=O)C4=O)cc1)c1nnc(C)n1-2 (stereo partly specified)
18.6 min	COc1cccc(C(=O)Nc2nc(-c3nnn(-c4cccc(Cl)c4C)c3C)ns2)c1
3.76 min	N#Cc1ccccc1-c1csc(N2CCC(C(N)=O)CC2)n1
13 min	O=S(=O)(Nc1ccc2ccccc2c1)c1ccc(NCc2cccc(Cl)c2O)cc1
> 30 min	O=C(Nc1ccc2oc(-c3cccnc3)nc2c1)c1ccc(-c2cccc(Cl)c2)o1
> 30 min	Cc1noc(C)c1-c1csc(N2CCC(C(N)=O)CC2)n1
11 min	Cc1ccccc1C(=O)N1CCc2cc(-c3nc(NC(=O)CC4CCCCC4)sc3C)ccc21
3.9 min	Cc1cnc(-c2ccccc2C(C)C)nc1NCC1CCN(c2cccnc2)CC1
1.95 min	Cc1cc(-c2nnc3n2CCCCC3)c(C)n1-c1cccc(Cl)c1
1.9 min	CCOc1ccc(CCNC(=O)c2ccc(Oc3ccccc3)cc2)cc1OCC
6.25 min	Cc1ccccc1-c1nc(NCc2ccc(-c3cccnc3)cc2)c2ccccc2n1
> 30 min	COc1ccc(-c2cnc(N3CCC(C(N)=O)CC3)s2)cc1OC
2.96 min	O=C1c2ccccc2C2=Nc3ccccc3SC(c3ccc(Cl)cc3)C12 (stereo unspecified)
15 min	COc1ccc(NC(=O)c2[nH]c(C)c(C(C)=O)c2C)cc1S(=O)(=O)Nc1cccc(C#N)c1
> 30 min	NCC(=O)Nc1ccc(Cl)cc1C(=O)c1ccc[nH]1
> 30 min	Clc1ccccc1-c1nccc(-n2ccnc2)n1
> 30 min	O=S(=O)(Nc1nc2n(n1)C(c1ccccc1)C=C(c1ccc(Cl)cc1)N2)c1ccccc1 (stereo unspecified)
> 30 min	Cc1cn(CCN2CCN(c3ccccc3-c3cc(C#N)cc(C(=O)NCCCN4CCCC4)c3)CC2)c2ccccc12
5.51 min	CC[C@H](CO)Nc1nc(NCc2ccccc2)c2ncn(C(C)C)c2n1
1.38 min	CCOc1ccccc1N(CC(=O)Nc1cc(OC)ccc1OC)S(=O)(=O)c1ccccc1
2.8 min	O=C(c1cnc(N2CCCCC2)c2ccccc12)N1CCN(c2ccc(Cl)cc2)CC1

half-life	SMILES
> 30 min	O=C(Nc1ncc(Cc2ccc(C(F)(F)F)cc2)s1)c1ccco1
9.75 min	CCc1oc2ccccc2c1C(=O)c1cc(Br)c(O)c(Br)c1
2.04 min	CCOc1ccc(OCC)c(NC(=O)C(NS(=O)(=O)c2ccc(Br)s2)c2ccccc2)c1 (stereo unspecified)
10.3 min	O=C(NC1CCCCC1)N1Cc2[nH]cnc2C[C@H]1c1nc(-c2cccc([N+](=O)[O-])c2)no1
> 30 min	O=C1NC(=O)C(c2cnc3ccccn23)=C1c1cn2c3c(cccc13)CN(C(=O)N1CCOCC1)CC2
5.6 min	Cc1ccc(S(=O)(=O)Nc2cnccc2C(=O)Nc2cccc3ccccc23)cc1
2.71 min	Cc1ccccc1Nc1c(-c2ccccc2O)nc2sccn12
> 30 min	O=C1CCCc2cc(S(=O)(=O)Nc3cnccc3C(=O)Nc3nc(-c4ccccc4)cs3)ccc2N1
> 30 min	Cc1cc(N=Nc2ccc(S(=O)(=O)Nc3ccccn3)cc2)c(N)cc1O
21 min	COC(=O)C1=C(C)NC(=O)CC1C(=O)Nc1ccc(Cl)cc1 (stereo unspecified)
24.8 min	Cc1noc(C)c1[S+](=O)([O-])N1CCC2(CC1)CC(c1cccc(C(F)(F)F)c1)=NO2
1.6 min	CC(C)c1ccccc1-c1ncc(F)c(NC(C)(C)c2ccc(-n3ccnn3)cc2)n1
5 min	CC1CN(c2ccc(Nc3nc(-c4ccncc4)nc4ccccc34)cc2F)CC(C)O1 (stereo unspecified)
1.79 min	Oc1ccccc1CN1CCNc2cc(Nc3ccccc3)ncc2C1
19.1 min	O=C(C1CC(=O)N(c2n[nH]c3ccccc23)C1)N1CCC(c2noc3cc(F)ccc23)CC1 (stereo unspecified)
1.5 min	CCOc1ccc(CCNC(=O)c2ccccc2)cc1OCC
10 min	COc1ccccc1-c1nc(NCc2cnc(C)cn2)c2ccccc2n1
> 30 min	CCCCCn1c(=O)[nH]c2cc(C(=O)NCCCN3CCCCC3)ccc2c1=O
10 min	Cc1ccc(S(=O)(=O)Nc2ccccc2C(=O)Nc2nc(-c3ccccc3)c(Br)s2)cc1
1.32 min	CCc1ccc(OC(C)C(=O)N2CCC(c3nc4ccccc4o3)CC2)cc1 (stereo unspecified)
> 30 min	CC1(C)C(=O)NC2=C1C(=O)C(=O)c1ccccc12
1.7 min	CCOc1ccc(CCNC(=O)c2cc3ccccc3n2Cc2cc(C)cc(C)n2)cc1OCC
10 min	O=C(Cc1ccc(Cl)c(Cl)c1)Nc1ccc(S(=O)(=O)Nc2cccc(O)c2)cc1
5.25 min	Cc1noc(C)c1CN1CCNc2cc(Nc3ccccc3)ncc2C1
> 30 min	COc1cc2c(Oc3ccc(-c4cnc(Nc5ccc(F)cc5)n(C)c4=O)cc3F)ccnc2cc1OCCCN1CCOCC1

SMILES	half-life
Cc1cccc(-n2nc(C)c3c2NC(=O)CSC3c2ccccc2Cl)c1 (stereo unspecified)	1.63 min
